Converted amounts (≈) assume the structure as drawn. Where two headings read alike, the source gives them in different places.
System: S. aureus
Test: Minimum inhibitory concentrations (MICs) for S. aureus of exemplary compounds (Table 2)
Format: cell-based
Settings: Staphylococcus aureus, read-out: MICs
Outline: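 Growth of S. aureus in media with or without compound, by broth microdilution in microtiter trays following NCCLS M7-A5 guidelines. Values are MICs in μg/mL.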

[1] = minimum inhibitory concentrations for S. aureus

SMILES	MIC [1]	MIC
CC(=O)NC[C@H]1CN(c2ccc(-c3ccc(CNC(=O)/C=C/c4ccc(=O)n(C)c4)cc3)c(F)c2)C(=O)O1 [Compound 4193, N-{4′-[5-(S)-(Acetylamino-methyl)-2-oxo-oxazolidin-3-yl]-2′-fluoro-biphenyl-4-ylmethyl}-3-(1-methyl-6-oxo-1,6-dihydro-pyridin-3-yl)-acrylamide]	8 µg/mL (≈ 15.4 µM)	–
CC(=O)NC[C@H]1CN(c2ccc(-c3ccc(COCc4ccncc4)cc3)c(F)c2)C(=O)O1 [Compound 4196, N-{3-[2-Fluoro-4′-(pyridin-4-ylmethoxymethyl)-biphenyl-4-yl]-2-oxo-oxazolidin-5-(S)-ylmethyl}-acetamide]	1 µg/mL (≈ 2.22 µM)	–
CC(=O)NC[C@H]1CN(c2ccc(-c3ccc(COCc4ccccn4)cn3)c(F)c2)C(=O)O1 [Compound 4197, N-(3-{3-Fluoro-4-[5-(pyridin-2-ylmethoxymethyl)-pyridin-2-yl]-phenyl}-2-oxo-oxazolidin-5-(S)-ylmethyl)-acetamide]	4 µg/mL (≈ 8.88 µM)	–
CC(=O)NC[C@H]1CN(c2ccc(-c3ccc(COCc4cc[n+]([O-])cc4)cc3)c(F)c2)C(=O)O1 [Compound 4198, N-{3-[2-Fluoro-4′-(1-oxy-pyridin-4-ylmethoxymethyl)-biphenyl-4-yl]-2-oxo-oxazolidin-5-(S)-ylmethyl}-acetamide]	2 µg/mL (≈ 4.3 µM)	–
CC(=O)NC[C@H]1CN(c2ccc(-c3ccc(CNCc4cncnc4)cc3)c(F)c2)C(=O)O1 [Compound 4203, N-[3-(2-Fluoro-4′-{[(pyrimidin-5-ylmethyl)-amino]-methyl}-biphenyl-4-yl)-2-oxo-oxazolidin-5-(S)-ylmethyl]-acetamide]	–	1 µg/mL (≈ 2.22 µM)
CC(=O)NC[C@H]1CN(c2ccc(-c3ccc(CN(Cc4csnn4)C(C)=O)cc3)c(F)c2)C(=O)O1 [Compound 4204, N-(3-{4′-[(Acetyl-[1,2,3]thiadiazol-4-ylmethyl-amino)-methyl]-2-fluoro-biphenyl-4-yl}-2-oxo-oxazolidin-5-(S)-ylmethyl)-acetamide]	2 µg/mL (≈ 4.02 µM)	–
CC(=O)NC[C@H]1CN(c2ccc(-c3ccc(CNCc4ncsn4)cc3)c(F)c2)C(=O)O1 [Compound 4206, N-[3-(2-Fluoro-4′-{[([1,2,4]thiadiazol-3-ylmethyl)-amino]-methyl}-biphenyl-4-yl)-2-oxo-oxazolidin-5-(S)-ylmethyl]-acetamide]	1 µg/mL (≈ 2.2 µM)	–
CC(=O)NC[C@H]1CN(c2ccc(-c3ccc(CNC(=O)c4csc(NCc5ccc(Cl)cc5)n4)cc3)c(F)c2)C(=O)O1 [Compound 4207, 2-(4-Chloro-benzylamino)-thiazole-4-carboxylic acid {4′-[5-(S)-(acetylamino-methyl)-2-oxo-oxazolidin-3-yl]-2′-fluoro-biphenyl-4-ylmethyl}-amide]	2 µg/mL (≈ 3.29 µM)	–
CC(=O)NC[C@H]1CN(c2ccc(-c3ccc(CNCc4cnco4)cc3)c(F)c2)C(=O)O1 [Compound 4208, N-[3-(2-Fluoro-4′-{[(oxazol-5-ylmethyl)-amino]-methyl}-biphenyl-4-yl)-2-oxo-oxazolidin-5-(S)-ylmethyl]-acetamide]	1 µg/mL (≈ 2.28 µM)	–
CC(=O)NC[C@H]1CN(c2ccc(-c3ccc(CNCC4OCCO4)cc3)c(F)c2)C(=O)O1 [Compound 4209, N-[3-(4′-{[([1,3]Dioxolan-2-ylmethyl)-amino]-methyl}-2-fluoro-biphenyl-4-yl)-2-oxo-oxazolidin-5-(S)-ylmethyl]-acetamide]	0.5 µg/mL (≈ 1.13 µM)	–
O=C1O[C@@H](CO)CN1c1ccc(-c2ccc(CNCc3ccncc3)cc2)c(F)c1 [Compound 4213, 3-(2-Fluoro-4′-{[(pyridin-4-ylmethyl)-amino]-methyl}-biphenyl-4-yl)-5-(R)-hydroxymethyl-oxazolidin-2-one]	4 µg/mL (≈ 9.82 µM)	–
CC(=O)NC[C@H]1CN(c2ccc(-c3ccc(CS(=O)(=O)Cc4ccncc4)cc3)c(F)c2)C(=O)O1 [Compound 4214, N-{3-[2-Fluoro-4′-(pyridin-4-ylmethanesulfonylmethyl)-biphenyl-4-yl]-2-oxo-oxazolidin-5-(S)-ylmethyl}-acetamide]	1 µg/mL (≈ 2.01 µM)	–
CC(=O)NC[C@H]1CN(c2ccc(-c3ccc(CSCc4ccccn4)cc3)c(F)c2)C(=O)O1 [Compound 4216, N-{3-[2-Fluoro-4′-(pyridin-2-ylmethylsulfanylmethyl)-biphenyl-4-yl]-2-oxo-oxazolidin-5-(S)-ylmethyl}-acetamide]	0.5 µg/mL (≈ 1.07 µM)	–
CC(=O)NC[C@H]1CN(c2ccc(-c3ccc(CNCc4cn(C)c5ccccc45)cc3)c(F)c2)C(=O)O1 [Compound 4218, N-[3-(2-Fluoro-4′-{[(1-methyl-1H-indol-3-ylmethyl)-amino]-methyl}-biphenyl-4-yl)-2-oxo-oxazolidin-5-(S)-ylmethyl]-acetamide]	2 µg/mL (≈ 4 µM)	–
CC(=O)NC[C@H]1CN(c2ccc(-c3ccc(C(=O)NCc4ncon4)cc3)c(F)c2)C(=O)O1 [Compound 4224, 4′-[5-(S)-(Acetylamino-methyl)-2-oxo-oxazolidin-3-yl]-2′-fluoro-biphenyl-4-carboxylic acid ([1,2,4]oxadiazol-3-ylmethyl)-amide]	0.5 µg/mL (≈ 1.1 µM)	–

Continued by falling MIC [1], values first:

MIC [1]	SMILES	MIC
16 µg/mL (≈ 35.5 µM)	CC(=O)NC[C@H]1CN(c2ccc(-c3ccc(C(=N)NCc4ccco4)cc3)c(F)c2)C(=O)O1 [Compound 4222, N-{3-[2-Fluoro-4′-(N-furan-2-ylmethyl-carbamimidoyl)-biphenyl-4-yl]-2-oxo-oxazolidin-5-(S)-ylmethyl}-acetamide]	–
8 µg/mL (≈ 18.1 µM)	CC(=O)NC[C@H]1CN(c2ccc(-c3ccc(CNCC4CCOC4)cc3)c(F)c2)C(=O)O1 (stereo partly drawn) [Compound 4219, N-[3-(2-Fluoro-4′-{[(tetrahydro-furan-3-ylmethyl)-amino]-methyl}-biphenyl-4-yl)-2-oxo-oxazolidin-5-(S)-ylmethyl]-acetamide]	–
4 µg/mL (≈ 8.54 µM)	CC(=O)NC[C@H]1CN(c2ccc(-c3ccc([C@@H](O)CNCc4cocn4)cc3)c(F)c2)C(=O)O1 [Compound 4199, N-[3-(2-Fluoro-4′-{1-(R)-hydroxy-2-[(oxazol-4-ylmethyl)-amino]-ethyl}-biphenyl-4-yl)-2-oxo-oxazolidin-5-(S)-ylmethyl]-acetamide]	–
4 µg/mL (≈ 8.54 µM)	CC(=O)NC[C@H]1CN(c2ccc(-c3ccc([C@@H](CO)NCc4cocn4)cc3)c(F)c2)C(=O)O1 [Compound 4200, N-[3-(2-Fluoro-4′-{2-hydroxy-1-(S)-[(oxazol-4-ylmethyl)-amino]-ethyl}-biphenyl-4-yl)-2-oxo-oxazolidin-5-(S)-ylmethyl]-acetamide]	–
4 µg/mL (≈ 8.36 µM)	CC(=O)NC[C@H]1CN(c2ccc(-c3ccc([C@H](CO)NCc4ccncc4)cc3)c(F)c2)C(=O)O1 [Compound 4202, N-[3-(2-Fluoro-4′-{2-hydroxy-1-(R)-[(pyridin-4-ylmethyl)-amino]-ethyl}-biphenyl-4-yl)-2-oxo-oxazolidin-5-(S)-ylmethyl]-acetamide]	–
4 µg/mL (≈ 9.67 µM)	CC(=O)NC[C@H]1CN(c2ccc(-c3ccc(CNCC4CO4)cc3)c(F)c2)C(=O)O1 (stereo partly drawn) [Compound 4210, N-(3-{2-Fluoro-4′-[(oxiranylmethyl-amino)-methyl]-biphenyl-4-yl}-2-oxo-oxazolidin-5-(S)-ylmethyl)-acetamide]	–
2 µg/mL (≈ 3.86 µM)	CC(=O)NC[C@H]1CN(c2ccc(-c3ccc(CNC(=O)/C=C/c4cccn(C)c4=O)cc3)c(F)c2)C(=O)O1 [Compound 4194, N-{4′-[5-(S)-(Acetylamino-methyl)-2-oxo-oxazolidin-3-yl]-2′-fluoro-biphenyl-4-ylmethyl}-3-(1-methyl-2-oxo-1,2-dihydro-pyridin-3-yl)-acrylamide]	–
2 µg/mL (≈ 4.18 µM)	CC(=O)NC[C@H]1CN(c2ccc(-c3ccc([C@@H](O)CNCc4ccncc4)cc3)c(F)c2)C(=O)O1 [Compound 4201, N-[3-(2-Fluoro-4′-{1-(R)-hydroxy-2-[(pyridin-4-ylmethyl)-amino]-ethyl}-biphenyl-4-yl)-2-oxo-oxazolidin-5-(S)-ylmethyl]-acetamide]	–
2 µg/mL (≈ 4.29 µM)	CC(=O)NC[C@H]1CN(c2ccc(-c3ccc(C(=O)NCCc4cnc[nH]4)nc3)c(F)c2)C(=O)O1 [Compound 4223, 5-{4-[5-(S)-(Acetylamino-methyl)-2-oxo-oxazolidin-3-yl]-2-fluoro-phenyl}-pyridine-2-carboxylic acid [2-(3H-imidazol-4-yl)-ethyl]-amide]	–
1 µg/mL (≈ 2.22 µM)	CC(=O)NC[C@H]1CN(c2ccc(-c3ccc(COCc4ccccn4)cc3)c(F)c2)C(=O)O1 [Compound 4192, N-{3-[2-Fluoro-4′-(pyridin-2-ylmethoxymethyl)-biphenyl-4-yl]-2-oxo-oxazolidin-5-(S)-ylmethyl}-acetamide]	–
1 µg/mL (≈ 2.22 µM)	CC(=O)NC[C@H]1CN(c2ccc(-c3ccc(COCc4ccccn4)nc3)c(F)c2)C(=O)O1 [Compound 4195, N-(3-{3-Fluoro-4-[6-(pyridin-2-ylmethoxymethyl)-pyridin-3-yl]-phenyl}-2-oxo-oxazolidin-5-(S)-ylmethyl)-acetamide]	–
1 µg/mL (≈ 2.21 µM)	CC(=O)NC[C@H]1CN(c2ccc(-c3ccc(C(=O)NCc4cocn4)cc3)c(F)c2)C(=O)O1 [Compound 4205, 4′-[5-(S)-(Acetylamino-methyl)-2-oxo-oxazolidin-3-yl]-2′-fluoro-biphenyl-4-carboxylic acid (oxazol-4-ylmethyl)-amide]	–
1 µg/mL (≈ 2.08 µM)	CC(=O)NC[C@H]1CN(c2ccc(-c3ccc(C[S+]([O-])Cc4ccccn4)cc3)c(F)c2)C(=O)O1 (stereo partly drawn) [Compound 4217, N-{3-[2-Fluoro-4′-(pyridin-2-ylmethanesulfinylmethyl)-biphenyl-4-yl]-2-oxo-oxazolidin-5-(S)-ylmethyl}-acetamide]	–
0.25 µg/mL (≈ 0.537 µM)	CC(=O)NC[C@H]1CN(c2ccc(-c3ccc(CSCc4ccncc4)cc3)c(F)c2)C(=O)O1 [Compound 4211, N-{3-[2-Fluoro-4′-(pyridin-4-ylmethylsulfanylmethyl)-biphenyl-4-yl]-2-oxo-oxazolidin-5-(S)-ylmethyl}-acetamide]	–
0.25 µg/mL (≈ 0.519 µM)	CC(=O)NC[C@H]1CN(c2ccc(-c3ccc(C[S+]([O-])Cc4ccncc4)cc3)c(F)c2)C(=O)O1 (stereo partly drawn) [Compound 4212, N-{3-[2-Fluoro-4′-(pyridin-4-ylmethanesulfinylmethyl)-biphenyl-4-yl]-2-oxo-oxazolidin-5-(S)-ylmethyl}-acetamide]	–
0.25 µg/mL (≈ 0.488 µM)	CC(=O)NC[C@H]1CN(c2ccc(-c3ccc(CN(C)Cc4cnc5ccccc5c4)cc3)c(F)c2)C(=O)O1 [Compound 4215, N-(3-{2-Fluoro-4′-[(methyl-quinolin-3-ylmethyl-amino)-methyl]-biphenyl-4-yl}-2-oxo-oxazolidin-5-(S)-ylmethyl)-acetamide]	–
